Assay results published in publication PMC6711789 (Bioorganic & medicinal chemistry letters, 2019).
Marks after values point to notes of the source that are not given here.

How the values were obtained:
[1] = test system: S. aureus ATCC 8235-4 (MSSA); assay: Broth microdilution MIC against S. aureus ATCC 8235-4; type: cell-based; settings: lowest concentration preventing visible growth
[2] = Cytotoxicity against HepG2 cells using CellTiter Glo; type: cell-based; settings: human
[3] = test system: CYP1A2, 2C9, 2C19, 2D6, 3A4; assay: CYP inhibition; type: in vitro ADME; settings: measured against CYP1A2, 2C9, 2C19, 2D6, 3A4
[4] = test system: COXI and SDH-A mitochondrial proteins; type: cell-based; settings: read-out: Mt protein synthesis inhibition IC50

Row | Structure (SMILES) | MIC [1] | EC50 [2] | CYP inhibition [3] | IC50 [4]
1 | CC(=O)NC[C@H]1CN(c2ccc(N3CCOC4(CCN(C)C4)C3)c(F)c2)C(=O)O1 (stereo partly drawn) [Compound 17] | > 32^b μg/mL |  |  | 
2 | CC(=O)NC[C@H]1CN(c2ccc(N3CCO[C@@]4(CCCOC4)C3)c(F)c2)C(=O)O1 [Compound 19a] |  | > 30 µM | > 100 µM | 30 µM
3 | CC(=O)NC[C@H]1CN(c2ccc(N3CCO[C@]4(CCCOC4)C3)c(F)c2)C(=O)O1 [Compound 19b] |  | > 30 µM | >100 µM | > 30 µM
4 | CC(=O)NC[C@H]1CN(c2ccc(N3CCOC(C)(CCN(C)C)C3)c(F)c2)C(=O)O1 (stereo partly drawn) [Compound 23] | > 32^b μg/mL |  |  | 
5 | CC(=O)NC[C@H]1CN(c2ccc(N3CCOC4(CCCNC4)C3)c(F)c2)C(=O)O1 (stereo partly drawn) [Compound 25] | > 32^b μg/mL |  |  | 
6 | CC(=O)NC[C@H]1CN(c2ccc(N3CCOC4(CCNC4)C3)c(F)c2)C(=O)O1 (stereo partly drawn) [Compound 27] | > 32^b μg/mL |  |  | 
7 | CC(=O)NC[C@H]1CN(c2ccc(N3CCOCC3)c(F)c2)C(=O)O1 [Linezolid, linezolid, reference compound] |  | > 30 µM | >100 µM | 
